Results: publication PMC3591338, “Kinetics of Isomerization and Inversion of Aspartate 58 of αA-Crystallin Peptide Mimics under Physiological Conditions” (PLoS ONE, 2013)
Where a SMILES comes first, the peptide text is derived from it.

experiment: Heating experiments: succinimide formation (dehydration) from Asp isomer peptides; assay type: physicochemical; conditions: chemical stability, PBS pH 7.4, 70°C, RP-HPLC peak areas, 215 nm
Protocol: To determine the rate constant for the conversion the Asp isomers to succinimides in the T6 peptide, the T6-Lα, T6-Lβ, T6-Dα and T6-Dβ peptides were dissolved in PBS (pH7.4) and were incubated at 50, 60, 70, 80, and 90°C for 0.4–31 days.
After the incubation of the 4 isomeric peptides, these peptides were subjected to HPLC. Since the four isomeric T6 peptides are clearly separated by RP-HPLC chromatography, we can measure the relative amounts of the peptides produced by the incubation from the peak areas of the 4 isomeric peptides in the chromatogram. The results are as follows: [drawing 11] (4 - 1) [drawing 12] (4 - 2) [drawing 13] (4 - 3) [drawing 14] (4 - 4) where [L-α-Asp]%, [L-β-Asp]%, [D-α-Asp]%, and [D-β-Asp]% are relative amounts (%) of L-α-Asp, L-β-Asp, D-α-Asp and D-β-Asp, and [L-α-Asp], [L-β-Asp], [D-α-Asp] and [D-β-Asp] represent the concentration of L-α-Asp, L-β-Asp, D-α-Asp and D-β-Asp respectively, which are calculated from the peak area in the RP-HPLC chromatogram. We plotted the relative amounts against incubation time. Subsequently, we drew fitted curves for this plot as follows:f1(t) for L-α-Asp, f2(t) for L-β-Asp, f3(t) for D-α-Asp, f4(t) for D-β-Asp.
The rate constants of the conversion of the peptide isomers can be expressed as follows: [drawing 15] (5 - 1) [drawing 16] (5 - 2) [drawing 17] (5 - 3) [drawing 18] (5 - 4) where [L-succinimide]% and [D-succinimide]% represent the relative amounts of L-succinimide and D-succinimide as a percentage, t is time (day), k1 is the rate constant for the conversion of L-α-Asp to L-succinimide (day^−1), k2 is the rate constant for the conversionof L-succinimide to L-α-Asp (day^−1), k3 is the rate constant for the conversion of L-β-Asp to L-succinimide (day^−1), k4 is the rate constant for the conversion of L-succinimide to L-β-Asp (day^−1), k5 is the rate constant for the conversion of D-α-Asp to D-succinimide (day^−1), k6 is the rate constant for the conversion of D-succinimide to D-α-Asp (day^−1), k7 is the rate constant for the conversion of D-β-Asp to D-succinimide (day^−1), k8 is the rate constant for the conversion of D-succinimide to D-β-Asp (day^−1), and f1’(t), f2’(t), f3’(t) and f4’(t) are derivatives of f1(t), f2(t), f3(t) and f4(t). At t = 0 day, [L-α-Asp]% and [L-succinimide]% are 100% and 0% respectively, therefore, Eq. (5-1) can be expressed as: […]
We determined k1, k3, k5 and k7 at five temperatures (50, 60, 70, 80 and 90°C) by using Eq. (6-1), (6-2), (6-3), (6-4). The Arrhenius equation shown below gives the activation energy of the degradation reaction. [drawing 23] […] From Eq. (7), we calculated k1, k3, k5 and k7 at 37°C using k1, k3, k5 and k7 from five temperatures (50, 60, 70, 80 and 90°C).

Compound	amount of peptide remaining after 10 days of incubation at 70°C
CC[C@H](C)[C@H](NC(=O)CNC(=O)[C@H](CO)NC(=O)[C@@H](CC(=O)O)NC(=O)[C@H](CC(C)C)NC(=O)[C@@H](NC(=O)[C@@H](N)[C@@H](C)O)C(C)C)C(=O)N[C@@H](CO)C(=O)N[C@@H](CCC(=O)O)C(=O)N[C@H](C(=O)N[C@@H](CCCNC(=N)N)C(=O)O)C(C)C [T6-Dα] (HELM PEPTIDE1{T.V.L.[dD].S.G.I.S.E.V.R}$$$$V2.0)	40%
CC[C@H](C)[C@H](NC(=O)CNC(=O)[C@H](CO)NC(=O)C[C@@H](NC(=O)[C@H](CC(C)C)NC(=O)[C@@H](NC(=O)[C@@H](N)[C@@H](C)O)C(C)C)C(=O)O)C(=O)N[C@@H](CO)C(=O)N[C@@H](CCC(=O)O)C(=O)N[C@H](C(=O)N[C@@H](CCCNC(=N)N)C(=O)O)C(C)C [T6-Dβ] (HELM PEPTIDE1{T.V.L.[O=C(O)[C@@H](CC(=O)[*:2])N[*:1]].S.G.I.S.E.V.R}$$$$V2.0)	more than 80%
CC[C@H](C)[C@H](NC(=O)CNC(=O)[C@H](CO)NC(=O)[C@H](CC(=O)O)NC(=O)[C@H](CC(C)C)NC(=O)[C@@H](NC(=O)[C@@H](N)[C@@H](C)O)C(C)C)C(=O)N[C@@H](CO)C(=O)N[C@@H](CCC(=O)O)C(=O)N[C@H](C(=O)N[C@@H](CCCNC(=N)N)C(=O)O)C(C)C [T6-Lα] (H-TVLDSGISEVR-OH)	30%
CC[C@H](C)[C@H](NC(=O)CNC(=O)[C@H](CO)NC(=O)C[C@H](NC(=O)[C@H](CC(C)C)NC(=O)[C@@H](NC(=O)[C@@H](N)[C@@H](C)O)C(C)C)C(=O)O)C(=O)N[C@@H](CO)C(=O)N[C@@H](CCC(=O)O)C(=O)N[C@H](C(=O)N[C@@H](CCCNC(=N)N)C(=O)O)C(C)C [T6-Lβ] (HELM PEPTIDE1{T.V.L.[O=C(O)[C@H](CC(=O)[*:2])N[*:1]].S.G.I.S.E.V.R}$$$$V2.0)	more than 80%
